Assay results reported in PubChem BioAssay AID2127 (Sanford-Burnham Center for Chemical Genomics, 2009).
Activity calls are given as the source filed them.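 The calls were made as follows: active = half-maximal inhibitory concentration below a set limit; inactive = the rest.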

Target: E3 ubiquitin-protein ligase SIAH1 (Homo sapiens) (UniProt Q8IUQ4)
Test: displacement of labeled plectin from Siah-1 – biochemical, fluorescence polarization, fluorescein-plectin, artefact control for Siah-1 antagonist project, dose response (AID 2127)
Conditions: Siah-1/fluorescein-plectin binding

| Structure (SMILES) | IC50 |
| --- | --- |
| O=c1[nH]c(-c2ccc(F)cc2)nc2c1sc(=S)n2-c1ccccc1 | > 200 µM (inactive) |
| C=C(C)Cn1c(N2CCN(CC)CC2)nc2c1c(=O)[nH]c(=O)n2C | > 200 µM (inactive) |
| Cc1ccc(C(=O)COc2ccccc2C(=O)Nc2ccccc2)cc1 | > 200 µM (inactive) |
| CC1(C)Cc2c(sc(/N=C/N3CCCCCC3)c2C#N)C(C)(C)N1 | > 200 µM (inactive) |
| CCc1nnc(NS(=O)(=O)c2ccc(NC(=S)NC(=O)/C=C/c3ccc(C(C)C)cc3)cc2)s1 | > 200 µM (inactive) |
| CC(=O)c1ccc(S(=O)(=O)Nc2ccc(-c3ccc4nnc(C)n4n3)cc2)cc1 | > 200 µM (inactive) |
| C[C@]12CCC3C(CC=C4C[C@@H](O)CC[C@@]43C)C1CCC2[C@]1(C)CCC(=O)O1 (some centres undefined) | > 200 µM (inactive) |
| CC1CCCCC1NC(=O)CCS(=O)(=O)c1ccc2c(c1)NC(=O)CO2 (centres undefined) | > 200 µM (inactive) |
| N#CC1C=Cc2ccccc2N1C(=O)c1ccccc1 (centres undefined) | > 200 µM (inactive) |
| Fc1ccc(/C=N/NC(=S)Nc2cccnc2)cc1F | > 200 µM (inactive) |
| O=C(O)CCCCN1C(=O)/C(=C\c2ccc(OCc3ccccc3)c(OCc3ccccc3)c2)SC1=S | > 200 µM (inactive) |
| CS(=O)(=O)N1CCN(c2ccc([N+](=O)[O-])c(SCc3ccco3)c2)CC1 | > 200 µM (inactive) |
| COc1ccc(N=C2NC(=O)S/C2=C\c2ccc(N(C)C)cc2)cc1 | inactive |
| CC(=O)c1ccc(NC(=O)CC2Nc3cccc4cccc(c34)NC2=O)cc1 (centres undefined) | > 200 µM (inactive) |
| CC(C)COc1ccc(-c2nn(-c3ccccc3)cc2/C=C2/SC(=S)N(CC(=O)O)C2=O)cc1 | > 200 µM (inactive) |
| CCCCn1c(NS(=O)(=O)c2ccccc2)c(S(=O)(=O)c2ccc(C)cc2)c2nc3ccccc3nc21 | > 200 µM (inactive) |
| O=C(Nc1ccc(Cl)cc1)c1ccc(S(=O)(=O)N2CCOCC2)cc1 | > 200 µM (inactive) |
| c1ccc(C(c2ccccc2)N2CCN(C(c3ccccn3)c3nnnn3C3CCCC3)CC2)cc1 (centres undefined) | > 200 µM (inactive) |
| COCCCNc1c2c3c(cccc3[nH]c1=O)C(=O)c1ccccc1-2 | > 200 µM (inactive) |
| CCC(C)N1C(=O)/C(=C/c2c(NCCCOC(C)C)nc3c(C)cccn3c2=O)SC1=S (centres undefined) | 5.66 µM |
| Cc1cc(C)nc(N=Nc2c(O)n(Cc3ccc(Cl)cc3)c3ccccc23)n1 | > 200 µM (inactive) |
| O=C(CC1Nc2cccc3cccc(c23)NC1=O)Nc1ccccc1 (centres undefined) | > 200 µM (inactive) |
| COCCn1nnnc1C(c1cc2ccc(OC)cc2[nH]c1=O)N1CCc2ccccc2C1 (centres undefined) | > 200 µM (inactive) |
| O=c1[nH]c2ccc(S(=O)(=O)N3CCCCC3)cc2s1 | > 200 µM (inactive) |

| Structure (SMILES) | IC50 |
| --- | --- |
| CCOc1ccccc1CNc1ccc(O)cc1 | > 200 µM (inactive) |
| CN(Cc1c(C(=O)N/N=C/c2ccc(F)cc2)nnn1-c1nonc1N)C1CCCCC1 | > 200 µM (inactive) |
| CCn1c(O)c(C=Nc2ccc(N3CCOCC3)cc2)c(=O)n(CC)c1=S | 13.9 µM |
| CCCCn1c(NS(=O)(=O)c2ccc(C)cc2)c(S(=O)(=O)c2ccccc2)c2nc3ccccc3nc21 | > 200 µM (inactive) |
| CC1CCN(S(=O)(=O)c2nnc(NC(=O)c3cccc(Cl)c3)s2)CC1 | > 200 µM (inactive) |
| O=S(=O)(Nc1nc2ccccc2nc1Nc1ccc(N2CCOCC2)cc1)c1cc(Cl)ccc1Cl | > 200 µM (inactive) |
| COc1ccc(C(C(=O)NCc2ccccc2)N(Cc2ccco2)C(=O)c2cnccn2)cc1 (centres undefined) | > 200 µM (inactive) |
| CN1C(=O)NC(c2ccccc2[N+](=O)[O-])C2=C1CCCC2=O (centres undefined) | 5.41 µM |
| COc1cc(/C=C(\C#N)c2nc3ccccc3[nH]2)ccc1OC(=O)c1ccco1 | > 200 µM (inactive) |
| CCN(CC)CCOC(=O)c1ccc(N/C=C(/C#N)c2nc(-c3ccc(OC)c(OC)c3)cs2)cc1 | > 200 µM (inactive) |
| Cc1ccc(-n2cccn2)c([C@@H]2C[C@H]3CN(C)C(=O)[C@]34CCCN24)c1 | > 200 µM (inactive) |
| O=C1C=C(NCc2ccccc2)c2ccccc2C1=O | > 200 µM (inactive) |
| COc1ccc(-c2cnnn2-c2ccc(N)cc2)cc1OC | > 200 µM (inactive) |
| CSc1ccccc1C(=O)NC(C)c1ccc(-n2ccnc2)cc1 (centres undefined) | > 200 µM (inactive) |
| N#C/C(=C\c1c(F)cccc1Cl)C(=O)NC1CC1 | > 200 µM (inactive) |
| CCCCN(Cc1cc2cc(OC)ccc2[nH]c1=O)S(=O)(=O)c1ccc(C)cc1 | > 200 µM (inactive) |
| Cc1cc(Cl)ccc1NC(=O)CN1CCC(C(O)(c2ccccc2)c2ccccc2)CC1 | > 200 µM (inactive) |
| Nc1ccc(O)c2c1C(=O)c1ccccc1C2=O | 5.75 µM |
| O=C(Nc1nc(-c2cc3ccccc3oc2=O)cs1)c1ccco1 | > 200 µM (inactive) |
| O=C1CCCC(O)=C1N=Nc1ccc(C(=O)O)cc1 | > 200 µM (inactive) |
| COc1cc(NS(=O)(=O)c2ccc(NC(=S)NC(=O)/C=C/c3ccc(F)cc3)cc2)ncn1 | > 200 µM (inactive) |
| COc1cccc(CCC(=O)N(C)C2CCCN(Cc3ccccc3F)C2)c1 (centres undefined) | > 200 µM (inactive) |
| O=S(=O)(Nc1c(S(=O)(=O)c2ccccc2)c2nc3ccccc3nc2n1C1CCCCC1)c1ccccc1 | > 200 µM (inactive) |
| CCCCn1c(NC(=O)c2ccco2)c(S(=O)(=O)c2ccc(C)cc2)c2nc3ccccc3nc21 | > 200 µM (inactive) |

| Structure (SMILES) | IC50 |
| --- | --- |
| CCCCn1c(NS(=O)(=O)c2ccccc2)c(C(=O)OCC)c2nc3ccccc3nc21 | > 200 µM (inactive) |
| CCC(C)[C@H](NC(=O)N1CCn2c1nc1ccccc12)C(=O)NCCc1ccc(OC)c(OC)c1 (some centres undefined) | > 200 µM (inactive) |
| O=S(=O)(O)c1cc(O)c2c(O)c(N=Nc3cc(Cl)ccc3O)c(S(=O)(=O)O)cc2c1 | > 200 µM (inactive) |
| Nc1c(C(=O)NCc2ccco2)c2nc3ccccc3nc2n1CCc1ccccc1 | > 200 µM (inactive) |
| COC(=O)C1C=C2c3cccc4[nH]cc(c34)CC2N(C)C1 (centres undefined) | 6.23 µM |
| COc1cc(/C=C2/SC(=S)N(Cc3ccccc3)C2=O)cc(Cl)c1O | > 200 µM (inactive) |
| O=C(Nc1cccc(Oc2ccc(C(=O)O)c(C(=O)O)c2)c1)c1ccc(-c2ccccc2)cc1 | > 200 µM (inactive) |
| CSc1n[nH]c(NCc2ccc(Cl)cc2)n1 | > 200 µM (inactive) |
| O=S(=O)(Nc1cc2nc3ccccc3nc2n1Cc1ccccc1)c1ccc(Cl)cc1 | > 200 µM (inactive) |
| Cc1ccn2c(C(=O)CSc3ccc(Cl)cc3Cl)c(C)nc2c1 | > 200 µM (inactive) |
| CC1=C(C#N)c2nc(N)c(C#N)c(C)c2/C1=C\c1ccc(-c2ccccc2C(=O)O)o1 | > 200 µM (inactive) |
| Cc1ccc(OCCCN2CCOCC2)cc1 | > 200 µM (inactive) |
| O=C(N/N=C/c1cccc(Br)c1)c1ccc(Br)cc1 | > 200 µM (inactive) |
| NS(=O)(=O)c1ccc(NC(=O)c2cccc(N3C(=O)c4ccccc4C3=O)c2)cc1 | > 200 µM (inactive) |
| COc1ccc(CNC(=S)Nc2cc(OC)ccc2OC)cc1 | > 200 µM (inactive) |
| CCN(CC)c1ccc(C=N/C(C#N)=C(\N)C#N)cc1 | > 200 µM (inactive) |
| CC(=O)Nc1ccc(N=Cc2c(O)c(C(=O)Nc3ccccc3)cc3ccccc23)cc1 | 4.98 µM |
| O=C(N/N=C/c1ccc(OC(=O)c2cccs2)cc1)c1cccc(F)c1 | > 200 µM (inactive) |
| Cc1ccccc1-c1nc2c3ccccc3nc(=S)n2[nH]1 | > 200 µM (inactive) |
| COC(=O)c1cc(NC(=O)c2ccccc2)c(=O)oc1/C=C/Nc1ccc(Oc2ccccc2)cc1 | > 200 µM (inactive) |
| CC(C)(C)c1ccc(C(CC(=O)O)NC(=O)Cc2ccc(F)cc2)cc1 (centres undefined) | > 200 µM (inactive) |
| COc1ccc(CCNC(=O)c2ccc(S(=O)(=O)N(C)c3ccccc3)cc2)cc1OC | > 200 µM (inactive) |
| COC(=O)c1c(C(=O)OC)c2cccc3cc(-c4ccccc4)c4ccc1c4n32 | inactive |
| Oc1c(Br)cc(Br)cc1CNc1ccc(F)cc1 | > 200 µM (inactive) |

| Structure (SMILES) | IC50 |
| --- | --- |
| CCOC(=O)c1c(C)[nH]c2c1-c1ccccc1C(=O)C2=O | > 200 µM (inactive) |
| O=C(/C=C/c1ccco1)OCc1nnc(-c2ccccc2)o1 | > 200 µM (inactive) |
| O=C(O)CCN1C(=O)/C(=C/c2cn(-c3ccccc3)nc2-c2cccs2)SC1=S | > 200 µM (inactive) |
| COc1cc(CC(=O)NCc2ccc3c(c2)OCO3)cc(OC)c1OC | > 200 µM (inactive) |
| O=C(O)c1cc(Cl)c(Cl)cc1C(=O)Nc1cccc2cccnc12 | > 200 µM (inactive) |
| COc1cccc2cc(C(=O)N3CCc4ccccc43)c(=O)oc12 | > 200 µM (inactive) |
| CCOC(=O)C1=C(C)N=c2s/c(=C\c3ccc(OCC(=O)O)cc3)c(=O)n2C1c1ccc(Cl)cc1 (centres undefined) | > 200 µM (inactive) |
| CCC1=Nc2cc(C(=O)O)ccc2Sc2ccccc21 | > 200 µM (inactive) |
| C[N+]1(CCNC(=O)/C=N/O)CCCCC1 | > 200 µM (inactive) |
| O=C(CSc1ccc(Br)c2cccc(Cl)c12)Nc1ccc(S(=O)(=O)Nc2nccs2)cc1 | > 200 µM (inactive) |
| Cc1ccc(C(=O)NC2CC3CCCC(C2)N3C(=O)NC2CCCCC2)cc1 (centres undefined) | > 200 µM (inactive) |
| CCOC(=O)/C(C#N)=c1/s/c(=C2\C=Cc3ccccc3N2CC)c(=O)n1CC | > 200 µM (inactive) |
| O=C(NCc1c(F)cccc1F)c1cc(COc2c(F)cccc2F)on1 | > 200 µM (inactive) |
| C=CCc1cccc2cc(C(=O)Nc3ccc(CC(=O)O)cc3)c(=O)oc12 | > 200 µM (inactive) |
| O=C(CCN1CCN(Cc2ccccc2)CC1)Nc1cccc(Cl)c1 | > 200 µM (inactive) |
| CCCCn1c(NC(=O)c2ccc(Br)o2)c(C(=O)OCC)c2nc3ccccc3nc21 | > 200 µM (inactive) |
| O=C(CCn1ccc2ccccc21)NC1CCCc2ccccc21 (centres undefined) | > 200 µM (inactive) |
| Cc1ccc(CNc2ccc(O)cc2)cc1 | > 200 µM (inactive) |
| O=C(O)CCCNc1cc(N2CCN(C(=O)c3ccco3)CC2)c2noc3c2c1C(=O)c1ccccc1-3 | 10.9 µM |
| Oc1ccc(N=Cc2sc3ccccc3c2Cl)cc1 | > 200 µM (inactive) |
| NS(=O)(=O)c1ccc(NS(=O)(=O)c2ccc(NC(=O)c3ccc(-c4ccccc4)cc3)cc2)cc1 | > 200 µM (inactive) |
| COC/C=C/C1=CC2=CC(=O)C(C)(OC(=O)c3ccco3)C(=O)C2=CO1 (centres undefined) | > 200 µM (inactive) |
